Experimental data taken from patent EP1492876B1, “CATIONIC AMPHIPHILES FOR INTRACELLULAR DELIVERY OF THERAPEUTIC MOLECULES, COMPOSITION, PROCESS AND USE THEREOF” (COUNCIL OF SCIENTIFIC AND INDUSTRIAL RESEARCH, priority 2002, dated 2003).

Key:
[1] = MTT based viability assay (toxicity assay); assay type: cell-based; settings: monkey; COS-1 cells, 3:1 charge ratio
Method: Toxicity Assays. An MTT based viability assay was performed to assess the cytotoxicity of lipids 1-5 at various lipid:DNA charge ratios with COS-1 cells as described previously (Banerjee, R. et al. 1999). […] For lipids 1, 4 and 5 at a 3:1 charge ratio the toxicity varied from 15-25 % of the treated cells. The toxicity of lipid 2 (with shorter alkyl chains) may originate from its probable detergent-like cell-lysing activity.

DNA = experiment: Lipid:DNA interactions assay (ethidium bromide exclusion, fluorescence); assay type: binding; settings: EtBr: pCMV β-gal complex titrated with lipid, TE buffer pH 8.0; Figure 2
From the text: Lipid:DNA Interactions Assay. Intercalation-induced fluorescence increase and competition with cationic lipids to bind to DNA has made Ethidium Bromide (EtBr) an excellent tool to study cationic lipid-DNA interactions. To assess the representative lipid:DNA interactions for the cationic lipids of the present invention, we have titrated the EtBr: pCMV β-gal complex with increasing amounts of cationic lipids 1-5.
The extent of Et.Br binding to the DNA was monitored by the changes in the fluorescence. EtBr fluorescence was monitored in Hitachi 4500 fluorimeter by setting the excitation wavelength at 518 nm and emission wavelength at 585 nm. To one ml of TE buffer (pH 8.0), 0.78 nmoles of DNA and 2.5 nmoles of EtBr were added. The change in fluorescence was monitored after adding small volumes of lipids 1-5 to the EtBr:DNA complex. Arbitrary fluorescence values were recorded after allowing sufficient time for equilibration. […] Percent fluorescence was calculated considering the fluorescence value in the absence of lipid as 100.

COS-1 cells = experiment: Cell transfection (β-galactosidase reporter gene activity); assay type: cell-based; settings: 0.15 µg plasmid DNA, lipid 0.05 - 4.3 nmoles, reporter gene activity after 48 h, Figure 1, compared with DMRIE
Method: Similar examples of plasmid include PGL-2 and PGL-3 of Promega and others.
Cell Transfection. COS-1 cells were seeded at a density of 15,000 cells/well in a 96-well plate eighteen hours before the transfection. 0.15 µg of plasmid DNA was complexed with varying amount of lipid (0.05 - 4.3 nmoles) in 13 µl of plain DMEM medium for 30 min. The charge ratios were varied from 0.1 : 1 to 9 : 1 (+/-) over this range of the lipid. The complex was diluted to 100 µl with plain DMEM and added to the wells. After 3 h of incubation, 100 µl of DMEM with 10 % FCS was added to the cells. The medium was changed to 10 % complete medium after 24 h and the reporter gene activity was estimated after 48 h. The cells were washed twice with PBS and lysed in 50 µl of lysis buffer (0.25 M Tris.HCl, pH 8.0 and 0.5% NP40). Care was taken to ensure complete lysis. The β-galactosidase activity per well was estimated by adding 50 µl of 2X substrate solution (1.33 mg/ml of ONPG, 0.2 M sodium phosphate, pH 7.15 and 2 mM magnesium chloride) to the lysate in a 96-well plate. Absorption at 405 nm was converted to β-galactosidase units by using calibration curve constructed with pure commercial β-galactosidase enzyme. The values of β-galactosidase units in replicate plates assayed on the same day varied by less than 30 %. […]

| SMILES | cytotoxicity [1] [%] | lipid:DNA interaction (ability to exclude ethidium bromide from DNA) (DNA) | in vitro transfection efficiency (COS-1 cells) |
| --- | --- | --- | --- |
| CCCCCCCCCCCC[N+]1(CCCCCCCCCCCC)CC(O)C(O)C1 (stereo not drawn) [compound 1] | 15 to 25 | interact poorly with DNA |  |
| CCCCCCCCCCCCCC[N+]1(CCCCCCCCCCCCCC)CC(O)C(O)C1 (stereo not drawn) [compound 2] |  | interact with DNA equally well up to lipid:DNA ratio of 1.25 or so | comparable to or better than that of DMRIE |
| CCCCCCCCCCCCCCCC[N+]1(CCCCCCCCCCCCCCCC)CC(O)C(O)C1 (stereo not drawn) [compound 3] |  | interact with DNA equally well up to lipid:DNA ratio of 1.25 or so |  |
| CCCCCCCCCCCCCCCCCC[N+]1(CCCCCCCCCCCCCCCCCC)CC(O)C(O)C1 (stereo not drawn) [compound 4] | 15 to 25 | interact poorly with DNA |  |
| CCCCCCCC/C=C\CCCCCCCC[N+]1(CCCCCCCCCCCCCCCCCC)CC(O)C(O)C1 (stereo not drawn) [compound 5] | 15 to 25 | interact poorly with DNA |  |
